Source: paper PMC8179002, “Inhibitors of thiol-mediated uptake” (Chemical Science, 2020)
pIC50: −log10 of the molar value.

Test system: pseudo-lentivectors that express the D614G mutant of the SARS-CoV-2 spike protein
Type: cell-based

| SMILES | Concentration at onset of inhibition of pseudo-lentivector entry [µM] | pIC50 (read-out: IC50, inhibition of pseudo-lentivector entry) |
| --- | --- | --- |
| CCN1C(=O)C2SSSSC1C(=O)N2CC(=O)O (centres unmarked) [compound 3] | 50 | – |
| O=S1(=O)C[C@H](O)[C@H](O)CS1 [compound 16] | – | ~4.30 |
